Measurements: patent US4866206A, “2-Halomethyl derivatives of 2-amino acids” (Merrell Dow France et Cie, priority 1988, dated 1989)

Tested on: prostatic growth in rats
Assay: effect on prostatic growth in rats
Format: in vivo
Settings: for % Weight loss of prostate: oral administration for 3 days
Excerpt: Accordingly, the compounds of Formula I can be used as contragestational agents (abortifacients) in female animals when it is desired to terminate early pregnancy. The use of 2-fluoromethyl-2,5-diaminopentanoic acid, and derivatives thereof, as a contragestational agent is described and claimed in U.S. Pat. No. 4,309,442 of P. Bey and M. Jung. […] Danzin et al., Biochem. J., 202, 175 (1982). Accordingly, the compounds of Formula I can be used to treat benign prostatic hypertrophy. The use of 2-fluoromethyl-2,5-diaminopentanoic acid, and derivatives thereof, in the treatment of benign prostatic hypertrophy is described and claimed in the U.S. Pat. No. 4,330,559 of P. Bey and M. Jung.
2-Fluoromethyl-2,5-diaminopentanoic acid was tested for its effect on prostatic growth in rats according to the procedure of C. Danzin et al., Biochem. J., 202, 175 (1982).
(a) Administered dissolved in drinking water employed as only water source for the animals.

NCCCC(N)(CF)C(=O)O (stereo not shown) [MFMO, 2-Fluoromethyl-2,5-diaminopentanoic acid]
% Weight loss of prostate (3.75 g/l in drinking water): -10% | % Weight loss of prostate (7.5 g/l in drinking water): -14% | % Weight loss of prostate (15 g/l in drinking water): -19% | weight of the ventral prostate (rats, method of Danzin): significant decrease
